The results in this text go back to patent publication US7638145B2, “Cultivated agarwood” (Regents of the University of Minnesota, priority 2001, dated 2009).

Common to all, as to assay type: in vivo
Test [1] concerns Aquilaria trees. As to the kind of experiment: Drill wounds treated with different compounds to stimulate agarwood production (Example 5). More on the design: Area of discoloration: unit not given here. The conditions noted are these: for effect on area of discoloration (in words): Example 5, at the concentrations tested; for Area of discoloration: approx 0.1-0.2 g per drill wound; for microscopic observations of cells around treated wounds: Example 5; for agarwood induction versus control wounds (in words): Example 5 conclusion. The protocol:
To test if different types of compounds could stimulate agarwood production, ⅝ inch drill wounds were made approximately 5 cm into the main trunk of young plantation trees and different materials used to treat the drill wounds. Chemicals used were from Sigma Chemicals Inc. St. Louis, Mo. or Mallinckrodt Inc. Paris, Ky. One drill wound per tree received no treatment and others received one of the following treatments:
Chitosan—purified chitin approximately 0.2 g of chitin was added per wound
Formic acid—approximately 0.1 g of formic acid was added per wound
Sodium chloride—approximately 0.2 g added per wound
Cellobiose—approximately 0.2 grams added per wound
Lime—approximately 0.1 g calcium carbonate added per wound
Trees were harvested after 12, 18 and 21 months.

Test [2] concerns Aquilaria trees. Nature of the test: Wound types and treatments on plantation trees, Phu Quoc Island, image analyzer area (Example 8). The conditions noted are these: for effect on area of discoloration and agarwood resin (in words): Example 8 conclusion; for Area of discoloration/resin: after 15 months, longitudinal plane, mean of 8 wounds, approx 0.3 g of agent mixed with sterile Aquilaria sawdust, drill wound plus 5x5 cm bark removed. The source says: Fourteen plantation grown trees on Phu Quoc Island were used to test different treatments. Each tree received 8 wounds that were spiraled up the main trunk of the tree separated by approximately 20 cm. A range of different types of wounds and treatments as well as controls were made on each tree. […] Trees were harvested after 15 months and taken to the laboratory for analyses.
Treatments Included: • 1. A surface wound approximately 5×5 cm was made by cutting the bark and removing the bark tissue to expose the xylem. No drill hole was made. • 3. A ⅝ inch drill wound was made approximately 5 cm into the xylem and a 5×5 cm section of the bark removed around the drill hole and approximately 0.3 g sterile Aquilaria sawdust added to the drill wound. • 4. Same as #3 but with approximately 0.3 g of a 1:1 ratio of ferrous chloride and sterile Aquilaria sawdust added to the drill wound. • 5. Same as #3 with approximately 0.3 g of a 1:2 ratio of NaCl and sterile Aquilaria sawdust added to the drill wound. • 6. Same as #3 but with approximately 0.3 g of a 1:4 ratio of Difco yeast extract and sterile Aquilaria sawdust. • 7. Same as #3 but with approximately 0.3 g of a 1:1 ratio of sodium bisulfite and sterile Aquilaria sawdust. • 8. Same as #3 but with approximately 0.3 g of a 1:2:4 ratio of Difco nutrient broth: Difco malt extract: sterile Aquilaria sawdust.
After 15 months, 8 trees were harvested and brought to the laboratory for analyses. The area of discoloration and resin formation was determined by splitting the tree through the wounded region and area affected measured using an image analyzer. Area (cm^2) was determined for all wounds in the longitudinal plane. Each value is a mean of 8 wounds.

The subject of test [3] is Aquilaria trees. As to the kind of experiment: Scribed drill wounds with Basidiomycota cultures or chemicals in sawdust, Kon Tum and Nui Cam (Example 9). Conditions: for effect on area of discoloration and agarwood resin (in words): Example 9 conclusion, sodium bisulfite 1:4, salicylic acid 1:2, ferrous chloride 1:4 in sawdust; for Area of discoloration: after 15 months, mean of two trees, chemicals approx 0.5 g in sterile Aquilaria sawdust. The source says: Young trees growing at two sites, in home gardens and on agricultural land (Kon Tum, Vietnam and Nui Cam, Vietnam), received 8 wounds per tree. Drill wounds ⅝ inch diameter were drilled approximately 5 cm into the main trunk of each tree in a spiral fashion separated by approximately 20 cm. All drill wounds were scribed to remove a 5×5 cm area of bark around the wound. Fungal treatments consisted of three different types of Basidiomycota obtained from Aquilaria trees in Vietnam. These isolates were not identified to genus but culture morphology indicated they were different genera. Cultures were grown on sterile rice supplemented with malt extract. Cultures were grown for three weeks before inoculation.
Treatments Included: • 1. Control wound receiving sterile rice • 2. Fungal culture 97-14-5 • 3. Fungal culture 97-13-7 • 4. Fungal culture 97-11-25 • 5. Control wound receiving 5 g sterile Aquilaria sawdust • 6. Approximately 0.5 g of a 1:4 ratio of sodium bisulfite and sterile Aquilaria sawdust • 7. Approximately 0.5 g of a 1:2 ratio of salicylic acid in sterile Aquilaria sawdust • 8. Approximately 0.5 g of a 1:4 ratio of ferrous chloride in sterile Aquilaria sawdust
After 15 months two trees were harvested from each location and brought to the laboratory for analyses. The mean area for each type of wound was calculated.

Each structure is given as a SMILES string.

For the compound `O=C[C@H](O)[C@@H](O)[C@H](O[C@@H]1O[C@H](CO)[C@@H](O)[C@H](O)[C@H]1O)[C@H](O)CO` [Cellobiose], the “effect on area of discoloration (in words)” value in test [1] is reported as “do not increase the area of discoloration”. The results for the Area of discoloration in test [1] (after 12 months), in test [1] (after 18 months) and in test [1] (after 21 months) were 9.9, 20.3 and 7.4, respectively.
Regarding `[Cl][Fe][Cl]` [Ferrous chloride, ferrous chloride], the “effect on area of discoloration and agarwood resin (in words)” value is “increase the area of discoloration within the tree and the amount of agarwood resin formed” in test [2]; “did not produce large areas of discoloration” in test [3]. Moreover, the Area of discoloration/resin in test [2] came out at 112.5 cm^2. Besides, the entries for the “Area of discoloration” value in test [3] (Location Kon Tum) and in test [3] (Location Nui Cam) were 18.4 cm^2 and 23.3 cm^2, respectively.
As to `O=CO` [Formic acid], the “microscopic observations of cells around treated wounds” value in test [1] was “react extensively and phloem cells are filled with resin”. For the same compound, the “agarwood induction versus control wounds (in words)” value in test [1] is listed as “induce greater amounts of agarwood than the control wounds”. Besides, the Area of discoloration in test [1] (after 12 months) is 28.5; in test [1] (after 18 months), 18.6; in test [1] (after 21 months), 31.8.
As to `O=C([O-])[O-].[Ca+2]` [Lime, calcium carbonate], the “effect on area of discoloration (in words)” value in test [1] is “do not increase the area of discoloration”. Moreover, the Area of discoloration in test [1] (after 12 months) is 10.0; in test [1] (after 18 months), 18.7; in test [1] (after 21 months), 9.7.
`[Cl-].[Na+]` [NaCl, Sodium chloride]: in test [1], the “microscopic observations of cells around treated wounds” value was “react extensively and phloem cells are filled with resin”; the “agarwood induction versus control wounds (in words)” value is listed as “induce greater amounts of agarwood than the control wounds”. The Area of discoloration in test [1] (after 12 months) was found to be 49.3. Further, the Area of discoloration in test [1] (after 18 months) was determined as 44.7. The same compound showed an Area of discoloration in test [1] (after 21 months) of 36.4. In test [2], the “effect on area of discoloration and agarwood resin (in words)” value was “increase the area of discoloration within the tree and the amount of agarwood resin formed”; the Area of discoloration/resin is listed as 48.1 cm^2.
As to `O=C(O)c1ccccc1O` [Salicylic acid, salicylic acid], the “effect on area of discoloration and agarwood resin (in words)” value in test [3] is recorded as “did not produce large areas of discoloration”. Further, the results for the “Area of discoloration” value in test [3] (Location Kon Tum) and in test [3] (Location Nui Cam) were 16.9 cm^2 and 25.5 cm^2, respectively.
Take `O=S([O-])O.[Na+]` [Sodium bisulfite, sodium bisulfite]: the “effect on area of discoloration and agarwood resin (in words)” value in test [2] was “increase the area of discoloration within the tree and the amount of agarwood resin formed”; in test [3], “reduced amount of discoloration and agarwood resin”. For the same compound, the Area of discoloration/resin in test [2] was determined as 182.0 cm^2. In addition, the “Area of discoloration” value in test [3] (Location Kon Tum) was found to be 52.3 cm^2; in test [3] (Location Nui Cam) it was 56.9 cm^2.
